Experiments:
[1] = test system: Long-Evans rat pups (term neonatal HIE model); experiment: Retinal histology, thicknesses of retinal layers at P30; format: in vivo; parameters: Effect size, RPE thickness / Effect size, OS thickness / Effect size, IS thickness / Effect size, ONL thickness / Effect size, OPL thickness / Effect size, INL thickness / Effect size, IPL thickness / Effect size, total thickness: scale not given here; settings: for Effect size, INL thickness / Effect size, IPL thickness / Effect size, IS thickness / Effect size, ONL thickness / Effect size, OPL thickness / Effect size, OS thickness / Effect size, RGC/FL thickness / Effect size, RPE thickness / Effect size, total thickness: compared to HI vehicle rat pups; for INL thickness / IPL thickness / IS thickness / ONL thickness / OPL thickness / OS thickness (outer segment) / RGC/FL thickness / RPE thickness / Total thickness: left eye, P30
Procedure: A well-established rat model of term neonatal HIE (Vannucci model) (Patel S D et al., 2014, Patel S D et al., 2015; […] et al., 2009; […] et al., 2009; Rice J E, 3rd et al., 1981) and produces concomitant retinal injury (Jung S et al., 2015). Rats undergoing both the ligation and hypoxia were considered the HI group. Sham operated rats (identical procedure as the HI group, but without ligation and hypoxia) served as the control group. […] Different doses of sildenafil-i.e., low (2 mg/kg), medium (10 mg/kg), and high (50 mg/kg)-were used in the HI and sham rat pups (n=4-7 animals/group). At P30, the animals were sacrificed, and the eyes were enucleated. Retinal histology was performed as per a previously described protocol (Jung S et al., 2015). […] Then, the retinal layer thickness was plotted against eccentricity to obtain the spider graphs (FIG. 7B).

[2] = test system: Long-Evans rat pups (neonatal HI); experiment: Retinal immunohistochemistry after neonatal HI; format: in vivo; settings: sildenafil 2, 10 or 50 mg/kg 7 days, P30
Description: Neonatal hypoxia-ischemia (HI) was induced in male Long-Evans rat pups at postnatal day 10 (P10) by left common carotid ligation followed by 2-hour exposure to 8% oxygen. […] At P30, rats were sacrificed and their eyes were extracted.

[3] = test system: Long-Evans rat pups (term neonatal HIE model); experiment: Brain structure, hematoxylin and eosin coronal sections at P30; settings: HI
Procedure: A well-established Vannucci rat model of term neonatal HIE, which combined a left common carotid artery ligation and a 2 hour exposure to hypoxia (8% oxygen) in 10-day-old (P10) rat pups, was used for the experiments, since this model is generally recognized to mimic the brain injuries observed in human term asphyxiated newborns. Briefly, the 10-day-old male Long-Evans rat pups were weighed and then deeply anesthetized with an intraperitoneal injection of fentanyl (0.2 mg/kg) and midazolam (1 mg/kg) to the point of unresponsiveness to noxious stimulation. Lidocaine-prilocaine cream (EMLA®; AstraZeneca Inc.) was applied to the ventral neck skin 30 minutes before surgery. The skin was cleaned with 2% chlorhexidine solution followed by 70% alcohol. A vertical incision was made along the ventral surface of the neck. The left common carotid artery was located, isolated, and then ligated with a single tight suture. Following the unilateral ligation, the skin incision was closed with an adhesive (n-butyl cyanoacrylate; 3 M VetBond Tissue Adhesive®; 3 M USA). The anesthesia was reversed with an intraperitoneal injection of naloxone (0.1 mg/kg) and flumazenil (1 mg/kg). […] For each rat pup, anesthesia time and surgical time were kept to a minimal time of less than 5-10 minutes. The pups were allowed to recover for approximately 1.5 h after surgery and then were placed in a sealed hypoxia chamber (Plastic Concepts, North Billerica, USA). The sealed chamber was infused with nitrogen until a level of 8% oxygen was reached, which was maintained for 2 h (oxygen analyzer model 600, Engineered Systems & Designs, Newark, Del.). The pups were allowed to recover for 30 minutes and then were returned to their cages with the mother. The rats undergoing the whole procedure were considered as the hypoxic-ischemic (HI) group (n=10-12 animals/groups). Sham operated rat pups (identical procedure as the HI group, but not the ligation and hypoxia) served as the control group (n=10-12 animals/groups). […]

CCCc1nn(C)c2c(=O)[nH]c(-c3cc(S(=O)(=O)N4CCN(C)CC4)ccc3OCC)nc12 [sildenafil]
thicknesses of affected retinal layers, response ([1]; HI, 10 mg/kg and 50 mg/kg doses): significantly improved response in terms of thicknesses of all the affected layers | Effect size, INL thickness ([1]; HI, Sild 2 mg/kg): 4.94 | Effect size, IPL thickness ([1]; HI, Sild 2 mg/kg): 0.11 | Effect size, IS thickness ([1]; HI, Sild 2 mg/kg): 2.16 | Effect size, ONL thickness ([1]; HI, Sild 2 mg/kg): 0.71 | Effect size, OPL thickness ([1]; HI, Sild 2 mg/kg): 4.91 | Effect size, OS thickness ([1]; HI, Sild 2 mg/kg): 0.40 | Effect size, RGC/FL thickness ([1]; HI, Sild 2 mg/kg): 1.37 | Effect size, RPE thickness ([1]; HI, Sild 2 mg/kg): 0.25 | Effect size, total thickness ([1]; HI, Sild 2 mg/kg): 14.72 | Effect size, INL thickness ([1]; HI, Sild 10 mg/kg): 19.74 | Effect size, IPL thickness ([1]; HI, Sild 10 mg/kg): 42.08 | Effect size, IS thickness ([1]; HI, Sild 10 mg/kg): −7.24 | Effect size, ONL thickness ([1]; HI, Sild 10 mg/kg): −19.22 | Effect size, OPL thickness ([1]; HI, Sild 10 mg/kg): 8.67 | Effect size, OS thickness ([1]; HI, Sild 10 mg/kg): −8.55 | Effect size, RGC/FL thickness ([1]; HI, Sild 10 mg/kg): 18.37 | Effect size, RPE thickness ([1]; HI, Sild 10 mg/kg): −0.73 | Effect size, total thickness ([1]; HI, Sild 10 mg/kg): 53.09 | Effect size, INL thickness ([1]; HI, Sild 50 mg/kg): 21.65 | Effect size, IPL thickness ([1]; HI, Sild 50 mg/kg): 41.40 | Effect size, IS thickness ([1]; HI, Sild 50 mg/kg): −7.50 | Effect size, ONL thickness ([1]; HI, Sild 50 mg/kg): −17.36 | Effect size, OPL thickness ([1]; HI, Sild 50 mg/kg): 8.95 | Effect size, OS thickness ([1]; HI, Sild 50 mg/kg): −9.86 | Effect size, RGC/FL thickness ([1]; HI, Sild 50 mg/kg): 16.59 | Effect size, RPE thickness ([1]; HI, Sild 50 mg/kg): −0.59 | Effect size, total thickness ([1]; HI, Sild 50 mg/kg): 53.25 | topographic retinal thickness (spider graph) ([1]; HI, low-dose of sildenafil): did not seem to reverse any of the HI-induced changes in retinal thickness, except in the inferior retina | topographic retinal thickness (spider graph) ([1]; HI, medium and high doses of sildenafil): nearly normal inner retina at almost all retinal eccentricities | INL thickness ([1]; HI, Sild 2 mg/kg): 14.71 ± 2.57 μm | IPL thickness ([1]; HI, Sild 2 mg/kg): 2.95 ± 2.60 μm | IS thickness ([1]; HI, Sild 2 mg/kg): 23.83 ± 3.12 μm | ONL thickness ([1]; HI, Sild 2 mg/kg): 70.88 ± 2.88 μm | OPL thickness ([1]; HI, Sild 2 mg/kg): 5.72 ± 3.05 μm | OS thickness (outer segment) ([1]; HI, Sild 2 mg/kg): 38.14 ± 3.66 μm | RGC/FL thickness ([1]; HI, Sild 2 mg/kg): 2.28 ± 2.28 μm | RPE thickness ([1]; HI, Sild 2 mg/kg): 8.88 ± 0.24 μm | Total thickness ([1]; HI, Sild 2 mg/kg): 167.28 ± 2.63 μm | INL thickness ([1]; HI, Sild 10 mg/kg): 29.50 ± 1.70 μm | IPL thickness ([1]; HI, Sild 10 mg/kg): 44.93 ± 7.35 μm | IS thickness ([1]; HI, Sild 10 mg/kg): 14.43 ± 1.15 μm | ONL thickness ([1]; HI, Sild 10 mg/kg): 50.95 ± 0.76 μm | OPL thickness ([1]; HI, Sild 10 mg/kg): 9.48 ± 0.38 μm | OS thickness (outer segment) ([1]; HI, Sild 10 mg/kg): 29.18 ± 2.14 μm | RGC/FL thickness ([1]; HI, Sild 10 mg/kg): 19.28 ± 3.36 μm | RPE thickness ([1]; HI, Sild 10 mg/kg): 7.89 ± 0.35 μm | Total thickness ([1]; HI, Sild 10 mg/kg): 205.64 ± 14.20 μm | INL thickness ([1]; HI, Sild 50 mg/kg): 31.42 ± 1.66 μm | IPL thickness ([1]; HI, Sild 50 mg/kg): 44.25 ± 11.86 μm | IS thickness ([1]; HI, Sild 50 mg/kg): 14.16 ± 0.25 μm | ONL thickness ([1]; HI, Sild 50 mg/kg): 52.81 ± 1.06 μm | OPL thickness ([1]; HI, Sild 50 mg/kg): 9.76 ± 0.84 μm | OS thickness (outer segment) ([1]; HI, Sild 50 mg/kg): 27.87 ± 2.09 μm | RGC/FL thickness ([1]; HI, Sild 50 mg/kg): 17.50 ± 4.07 μm | RPE thickness ([1]; HI, Sild 50 mg/kg): 8.03 ± 0.27 μm | Total thickness ([1]; HI, Sild 50 mg/kg): 205.80 ± 14.22 μm | photoreceptor degeneration ([1]; present example (rat pups)): did not induce photoreceptor degeneration | neuroinflammation, number of astrocytes in retina [2]: decreasing the number of astrocytes | number of retinal ganglion cells and bipolar cells [2]: restored the number of retinal ganglion cells and bipolar cells | total brain size, median (IQR) ([3]; high-dose sildenafil, not different from sham vehicle): 93.05 (91.53; 93.95) | total brain size, median (IQR) ([3]; low-dose sildenafil, p<0.05 vs sham vehicle): 92.19 (81.51; 97.58) | total brain size, median (IQR) ([3]; medium-dose sildenafil, not different from sham vehicle): 94.05 (84.4; 95.0)

Source: patent US10537575B2, “Phosphodiesterase inhibitors to repair brain and/or retinal injury in human newborns” (priority 2016, dated 2020)
